Data reported in PubChem BioAssay (NCI).
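These data come from cells grown in 96-well plates and exposed to compound for 48 hours at five concentrations. TGI denotes the concentration required for complete inhibition of growth.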

Tests used:
Assay in all cases: NCI-60 cell line screen, 48 h
[1] = test system: 786-0 renal
[2] = test system: A498 renal
[3] = test system: A549 NSCLC
[4] = test system: ACHN renal
[5] = test system: CAKI-1 renal
[6] = test system: CCRF-CEM leukemia
[7] = test system: COLO 205 colon
[8] = test system: DLD-1 colon
[9] = test system: DMS 114 small cell lung
[10] = test system: DMS 273 small cell lung
[11] = test system: EKVX NSCLC
[12] = test system: HCC-2998 colon
[13] = test system: HCT-116 colon
[14] = test system: HCT-15 colon
[15] = test system: HL-60(TB) leukemia
[16] = test system: HOP-62 NSCLC
[17] = test system: HOP-92 NSCLC
[18] = test system: HT29 colon
[19] = test system: IGROV1 ovarian
[20] = test system: K-562 leukemia
[21] = test system: KM12 colon
[22] = test system: KM20L2 colon
[23] = test system: LOX IMVI melanoma
[24] = test system: LXFL 529 NSCLC
[25] = test system: M14 melanoma
[26] = test system: M19-MEL melanoma
[27] = test system: MALME-3M melanoma
[28] = test system: MOLT-4 leukemia
[29] = test system: NCI-H226 lung
[30] = test system: NCI-H23 lung
[31] = test system: NCI-H460 lung
[32] = test system: NCI-H522 lung
[33] = test system: OVCAR-3 ovarian
[34] = test system: OVCAR-4 ovarian
[35] = test system: OVCAR-5 ovarian
[36] = test system: OVCAR-8 ovarian
[37] = test system: RPMI-8226 leukemia
[38] = test system: RXF 393 renal
[39] = test system: RXF-631 renal
[40] = test system: SF-268 CNS
[41] = test system: SF-295 CNS
[42] = test system: SF-539 CNS
[43] = test system: SK-MEL-2 melanoma
[44] = test system: SK-MEL-28 melanoma
[45] = test system: SK-MEL-5 melanoma
[46] = test system: SN12C renal
[47] = test system: SNB-19 CNS
[48] = test system: SNB-75 CNS
[49] = test system: SNB-78 CNS
[50] = test system: SW-620 colon
[51] = test system: TK-10 renal
[52] = test system: U251 CNS
[53] = test system: UACC-257 melanoma
[54] = test system: UACC-62 melanoma
[55] = test system: UO-31 renal
[56] = test system: XF 498 CNS
[57] = test system: HOP-18 NSCLC
[58] = test system: SK-OV-3 ovarian

SMILES: CSC(=NC(=O)c1ccccc1)SCCSC(=NC(=O)c1ccccc1)SC
- TGI [1]: > 100 µM
- TGI [2]: > 100 µM
- TGI [3]: > 100 µM
- TGI [4]: > 100 µM
- TGI [5]: > 100 µM
- TGI [6]: > 100 µM
- TGI [7]: > 100 µM
- TGI [8]: > 100 µM
- TGI [9]: > 100 µM
- TGI [10]: > 100 µM
- TGI [11]: > 100 µM
- TGI [12]: > 100 µM
- TGI [13]: > 100 µM
- TGI [14]: > 100 µM
- TGI [15]: > 100 µM
- TGI [16]: > 100 µM
- TGI [17]: 83.4 µM
- TGI [18]: > 100 µM
- TGI [19]: > 100 µM
- TGI [20]: > 100 µM
- TGI [21]: > 100 µM
- TGI [22]: > 100 µM
- TGI [23]: > 100 µM
- TGI [24]: > 100 µM
- TGI [25]: > 100 µM
- TGI [26]: > 100 µM
- TGI [27]: > 100 µM
- TGI [28]: > 100 µM
- TGI [29]: > 100 µM
- TGI [30]: > 100 µM
- TGI [31]: > 100 µM
- TGI [32]: > 100 µM
- TGI [33]: > 100 µM
- TGI [34]: 87.6 µM
- TGI [35]: > 100 µM
- TGI [36]: > 100 µM
- TGI [37]: > 100 µM
- TGI [38]: > 100 µM
- TGI [39]: > 100 µM
- TGI [40]: > 100 µM
- TGI [41]: > 100 µM
- TGI [42]: > 100 µM
- TGI [43]: > 100 µM
- TGI [44]: > 100 µM
- TGI [45]: > 100 µM
- TGI [46]: > 100 µM
- TGI [47]: > 100 µM
- TGI [48]: > 100 µM
- TGI [49]: > 100 µM
- TGI [50]: > 100 µM
- TGI [51]: > 100 µM
- TGI [52]: > 100 µM
- TGI [53]: > 100 µM
- TGI [54]: > 100 µM
- TGI [55]: > 100 µM
- TGI [56]: > 100 µM

SMILES: COC(=O)/C(=N\Nc1nc(=S)[nH]n1N)C(C#N)c1ccc(Cl)cc1 (centres undefined)
- TGI [1]: > 100 µM
- TGI [2]: > 100 µM
- TGI [3]: > 100 µM
- TGI [4]: > 100 µM
- TGI [5]: > 100 µM
- TGI [7]: > 100 µM
- TGI [8]: > 100 µM
- TGI [9]: > 100 µM
- TGI [10]: > 100 µM
- TGI [11]: > 100 µM
- TGI [12]: > 100 µM
- TGI [13]: > 100 µM
- TGI [14]: > 100 µM
- TGI [57]: > 100 µM
- TGI [16]: > 100 µM
- TGI [17]: > 100 µM
- TGI [18]: > 100 µM
- TGI [19]: > 100 µM
- TGI [21]: > 100 µM
- TGI [22]: > 100 µM
- TGI [23]: > 100 µM
- TGI [24]: > 100 µM
- TGI [25]: > 100 µM
- TGI [26]: > 100 µM
- TGI [27]: > 100 µM
- TGI [29]: > 100 µM
- TGI [30]: > 100 µM
- TGI [31]: > 100 µM
- TGI [33]: > 100 µM
- TGI [34]: > 100 µM
- TGI [35]: > 100 µM
- TGI [36]: > 100 µM
- TGI [37]: > 100 µM
- TGI [38]: > 100 µM
- TGI [39]: > 100 µM
- TGI [40]: > 100 µM
- TGI [41]: > 100 µM
- TGI [42]: > 100 µM
- TGI [43]: > 100 µM
- TGI [44]: > 100 µM
- TGI [58]: > 100 µM
- TGI [46]: > 100 µM
- TGI [47]: > 100 µM
- TGI [48]: > 100 µM
- TGI [49]: > 100 µM
- TGI [50]: > 100 µM
- TGI [51]: > 100 µM
- TGI [52]: > 100 µM
- TGI [53]: > 100 µM
- TGI [54]: > 100 µM
- TGI [55]: > 100 µM
- TGI [56]: > 100 µM

SMILES: CCCCCCCCCCCCCCCCCC(=O)NCC(COP(=O)([O-])OCC[N+](C)(C)C)OCC (centres undefined)
- TGI [3]: 33.4 µM
- TGI [9]: 32.9 µM
- TGI [10]: 0.284 µM
- TGI [11]: 38.7 µM
- TGI [22]: 0.71 µM
- TGI [23]: 44.6 µM
- TGI [27]: 36.1 µM
- TGI [30]: 34.6 µM
- TGI [39]: 37.5 µM
- TGI [42]: 31.6 µM
- TGI [44]: 32.5 µM
- TGI [45]: 32.2 µM
- TGI [58]: 33.7 µM
- TGI [47]: 0.326 µM
- TGI [53]: 33 µM
- TGI [55]: 33.8 µM

SMILES: Cc1ccc(-c2nc3ccccc3c(=O)n2NC2OC(CO)C(O)C(O)C2O)cc1 (centres undefined)
- TGI [1]: > 100 µM
- TGI [2]: > 100 µM
- TGI [3]: > 100 µM
- TGI [4]: > 100 µM
- TGI [5]: > 100 µM
- TGI [6]: > 100 µM
- TGI [7]: > 100 µM
- TGI [9]: > 100 µM
- TGI [10]: > 100 µM
- TGI [11]: > 100 µM
- TGI [12]: > 100 µM
- TGI [13]: > 100 µM
- TGI [14]: > 100 µM
- TGI [15]: > 100 µM
- TGI [57]: > 100 µM
- TGI [16]: > 100 µM
- TGI [17]: > 100 µM
- TGI [18]: > 100 µM
- TGI [19]: > 100 µM
- TGI [20]: > 100 µM
- TGI [21]: > 100 µM
- TGI [22]: > 100 µM
- TGI [24]: > 100 µM
- TGI [25]: > 100 µM
- TGI [26]: > 100 µM
- TGI [27]: > 100 µM
- TGI [28]: > 100 µM
- TGI [29]: > 100 µM
- TGI [30]: > 100 µM
- TGI [31]: > 100 µM
- TGI [32]: > 100 µM
- TGI [33]: > 100 µM
- TGI [34]: > 100 µM
- TGI [35]: > 100 µM
- TGI [36]: > 100 µM
- TGI [37]: > 100 µM
- TGI [39]: > 100 µM
- TGI [40]: > 100 µM
- TGI [41]: > 100 µM
- TGI [42]: > 100 µM
- TGI [43]: > 100 µM
- TGI [44]: > 100 µM
- TGI [45]: > 100 µM
- TGI [58]: > 100 µM
- TGI [46]: > 100 µM
- TGI [47]: > 100 µM
- TGI [48]: > 100 µM
- TGI [49]: > 100 µM
- TGI [50]: > 100 µM
- TGI [51]: > 100 µM
- TGI [52]: > 100 µM
- TGI [53]: > 100 µM
- TGI [54]: > 100 µM
- TGI [55]: > 100 µM
- TGI [56]: > 100 µM
